Measurements taken from ChEMBL document CHEMBL1154899, “Synthesis and biological evaluation of caffeic acid 3,4-dihydroxyphenethyl ester” (J Nat Prod, 2010).

What was measured:
Assay type in all cases: functional
UACC-62 = test: Antiproliferative activity against human UACC62 cells assessed as cell growth at 0.5 uM by SRB assay; conditions: read-out: Activity
SR = test: Antiproliferative activity against human SR cells by SRB assay
NCI-H522 = test: Antiproliferative activity against human NCI-H522 cells assessed as cell growth at 50 uM by SRB assay; conditions: read-out: Activity
CCRF-CEM = test: Antiproliferative activity against human CCRF-CEM cells assessed as cell growth at 50 uM by SRB assay; conditions: read-out: Activity
BT-549 [1] = test: Antiproliferative activity against human BT549 cells assessed as cell growth at 50 uM by SRB assay; conditions: read-out: Activity
MCF7 [2] = test: Antiproliferative activity against human MCF7 cells by SRB assay
BT-549 [3] = test: Antiproliferative activity against human BT549 cells assessed as cell growth at 5 uM by SRB assay; conditions: read-out: Activity
UACC-257 = test: Antiproliferative activity against human UACC257 cells assessed as cell growth at 0.5 uM by SRB assay; conditions: read-out: Activity
HOP-62 = test: Antiproliferative activity against human HOP62 cells assessed as cell growth at 0.5 uM by SRB assay; conditions: read-out: Activity
OVCAR-4 [4] = test: Antiproliferative activity against human OVCAR4 cells assessed as cell growth at 0.5 uM by SRB assay; conditions: read-out: Activity
HCC 2998 [5] = test: Antiproliferative activity against human HCC2998 cells assessed as cell growth at 500 uM by SRB assay; conditions: read-out: Activity
MDA-MB-231 = test: Antiproliferative activity against human MDA-MB-231 cells assessed as cell growth at 50 uM by SRB assay; conditions: read-out: Activity
HCC 2998 [6] = test: Antiproliferative activity against human HCC2998 cells assessed as cell growth at 50 uM by SRB assay; conditions: read-out: Activity
SK-MEL-28 [7] = test: Antiproliferative activity against human SK-MEL-28 cells assessed as cell growth at 50 uM by SRB assay; conditions: read-out: Activity
SF-539 = test: Antiproliferative activity against human SF539 cells assessed as cell growth at 5 uM by SRB assay; conditions: read-out: Activity
A549 = test: Antiproliferative activity against human A549 cells assessed as cell growth at 50 uM by SRB assay; conditions: read-out: Activity
NCI-H460 = test: Antiproliferative activity against human NCI-H460 cells assessed as cell growth at 5 mM by SRB assay; conditions: read-out: Activity
RXF 393 = test: Antiproliferative activity against human RXF393 cells assessed as cell growth at 0.5 uM by SRB assay; conditions: read-out: Activity
TK-10 [8] = test: Antiproliferative activity against human TK10 cells assessed as cell growth at 0.5 uM by SRB assay; conditions: read-out: Activity
MCF7 [9] = test: Antiproliferative activity against human MCF7 cells assessed as cell growth at 500 uM by SRB assay; conditions: read-out: Activity
NCI-H23 = test: Antiproliferative activity against human NCI-H23 cells assessed as cell growth at 50 uM by SRB assay; conditions: read-out: Activity
SK-MEL-5 = test: Antiproliferative activity against human SK-MEL-5 cells assessed as cell growth at 50 uM by SRB assay; conditions: read-out: Activity
OVCAR-4 [10] = test: Antiproliferative activity against human OVCAR4 cells by SRB assay
HCT-15 [11] = test: Antiproliferative activity against human HCT15 cells assessed as cell growth at 50 uM by SRB assay; conditions: read-out: Activity
Malme-3M = test: Antiproliferative activity against human MALME-3M cells by SRB assay
OVCAR-5 [12] = test: Antiproliferative activity against human OVCAR5 cells at 0.5 uM by SRB assay
OVCAR-5 [13] = test: Antiproliferative activity against human OVCAR5 cells at 500 uM by SRB assay
SNB-19 = test: Antiproliferative activity against human SNB19 cells by SRB assay
[14] = Antiproliferative activity against human […] cells assessed as cell growth at 500 uM by SRB assay; conditions: read-out: Activity
MOLT-4 [15] = test: Antiproliferative activity against human MOLT4 cells assessed as cell growth at 5 mM by SRB assay; conditions: read-out: Activity
HCT-15 [16] = test: Antiproliferative activity against human HCT15 cells assessed as cell growth at 500 uM by SRB assay; conditions: read-out: Activity
SK-MEL-2 = test: Antiproliferative activity against human SK-MEL-2 cells assessed as cell growth at 500 uM by SRB assay; conditions: read-out: Activity
SF-268 = test: Antiproliferative activity against human SF268 cells assessed as cell growth at 5 uM by SRB assay; conditions: read-out: Activity
OVCAR-3 = test: Antiproliferative activity against human OVCAR-3 cells assessed as cell growth at 50 uM by SRB assay; conditions: read-out: Activity
MOLT-4 [17] = test: Antiproliferative activity against human MOLT4 cells assessed as cell growth at 50 uM by SRB assay; conditions: read-out: Activity
HCT-15 [18] = test: Antiproliferative activity against human HCT15 cells assessed as cell growth at 0.5 uM by SRB assay; conditions: read-out: Activity
COLO 205 = test: Antiproliferative activity against human COLO205 cells assessed as cell growth at 50 uM by SRB assay; conditions: read-out: Activity
SNB-75 = test: Antiproliferative activity against human SNB75 cells assessed as cell growth at 50 uM by SRB assay; conditions: read-out: Activity
IGROV-1 = test: Antiproliferative activity against human IGROV1 cells by SRB assay
SK-MEL-28 [19] = test: Antiproliferative activity against human SK-MEL-28 cells by SRB assay
TK-10 [20] = test: Antiproliferative activity against human TK10 cells assessed as cell growth at 5 mM by SRB assay; conditions: read-out: Activity
HOP-92 = test: Antiproliferative activity against human HOP92 cells assessed as cell growth at 500 uM by SRB assay; conditions: read-out: Activity
A498 = test: Antiproliferative activity against human A498 cells assessed as cell growth at 50 uM by SRB assay; conditions: read-out: Activity
[21] = read-out: LC50 (the source's name)
[22] = read-out: pLC50 (the source's name) (converted)

## O=C(/C=C/c1ccc(O)c(O)c1)OCCc1ccc(O)c(O)c1
UACC-62
  growth at 0.5 µM: 91%
SR; read-out: GI50
  GI50: 1.49 µM
SR; [21]
  CC50: > 50 µM
SR; read-out: TGI
  TGI: 12.7 µM
SR; read-out: pGI50 (converted)
  GI50: 1.48 µM
SR; [22]
  CC50: > 50.1 µM
SR; read-out: pTGI (converted)
  TGI: 12.6 µM
NCI-H522
  growth at 50 µM: 77%
CCRF-CEM
  growth at 50 µM: 60%
BT-549 [1]
  growth at 50 µM: 97%
MCF7 [2]; read-out: GI50
  GI50: 3.86 µM
MCF7 [2]; [21]
  CC50: > 50 µM
MCF7 [2]; read-out: TGI
  TGI: > 50 µM
MCF7 [2]; read-out: pGI50 (converted)
  GI50: 3.89 µM
MCF7 [2]; [22]
  CC50: > 50.1 µM
MCF7 [2]; read-out: pTGI
  TGI: > 50.1 µM
BT-549 [3]
  growth at 5 µM: 100%
UACC-257
  growth at 0.5 µM: 93%
HOP-62
  growth at 0.5 µM: 92%
OVCAR-4 [4]
  growth at 0.5 µM: 99%
HCC 2998 [5]
  growth at 500 µM: 80%
MDA-MB-231
  growth at 50 µM: 97%
HCC 2998 [6]
  growth at 50 µM: 98%
SK-MEL-28 [7]
  growth at 50 µM: 93%
SF-539
  growth at 5 µM: 81%
A549
  growth at 50 µM: 101%
NCI-H460
  growth at 5000 µM: 1%
RXF 393
  growth at 0.5 µM: 88%
TK-10 [8]
  growth at 0.5 µM: 92%
MCF7 [9]
  growth at 500 µM: 45%
NCI-H23
  growth at 50 µM: 89%
SK-MEL-5
  growth at 50 µM: 102%
OVCAR-4 [10]
  GI50: 7.37 µM
OVCAR-4 [10]; [21]
  CC50: > 50 µM
OVCAR-4 [10]; read-out: TGI
  TGI: > 50 µM
OVCAR-4 [10]; [22]
  CC50: > 50.1 µM
OVCAR-4 [10]; read-out: pTGI
  TGI: > 50.1 µM
HCT-15 [11]
  growth at 50 µM: 78%
Malme-3M; read-out: GI50
  GI50: 18.6 µM
Malme-3M; [21]
  CC50: > 50 µM
Malme-3M; read-out: TGI
  TGI: > 50 µM
Malme-3M; read-out: pGI50 (converted)
  GI50: 18.6 µM
Malme-3M; [22]
  CC50: > 50.1 µM
Malme-3M; read-out: pTGI
  TGI: > 50.1 µM
OVCAR-5 [12]
  Activity: 94%
OVCAR-5 [13]
  Activity: 102%
SNB-19; read-out: GI50
  GI50: 15.5 µM
SNB-19; [21]
  CC50: > 50 µM
SNB-19; read-out: TGI
  TGI: > 50 µM
SNB-19; read-out: pGI50 (converted)
  GI50: 15.5 µM
SNB-19; [22]
  CC50: > 50.1 µM
SNB-19; read-out: pTGI
  TGI: > 50.1 µM
[14]
  growth at 500 µM: 11%
MOLT-4 [15]
  growth at 5000 µM: 4%
HCT-15 [16]
  growth at 500 µM: 38%
SK-MEL-2
  growth at 500 µM: 38%
SF-268
  growth at 5 µM: 91%
OVCAR-3
  growth at 50 µM: 90%
MOLT-4 [17]
  growth at 50 µM: 89%
HCT-15 [18]
  growth at 0.5 µM: 80%
COLO 205
  growth at 50 µM: 89%
SNB-75
  growth at 50 µM: 72%
IGROV-1; read-out: GI50
  GI50: 2.86 µM
IGROV-1; [21]
  CC50: > 50 µM
IGROV-1; read-out: TGI
  TGI: 24.4 µM
IGROV-1; read-out: pGI50 (converted)
  GI50: 2.88 µM
IGROV-1; [22]
  CC50: > 50.1 µM
IGROV-1; read-out: pTGI (converted)
  TGI: 15.5 µM
SK-MEL-28 [19]; read-out: GI50
  GI50: 6.51 µM
SK-MEL-28 [19]; [21]
  CC50: > 50 µM
SK-MEL-28 [19]; read-out: TGI
  TGI: > 50 µM
SK-MEL-28 [19]; read-out: pGI50 (converted)
  GI50: 6.46 µM
SK-MEL-28 [19]; [22]
  CC50: > 50.1 µM
SK-MEL-28 [19]; read-out: pTGI
  TGI: > 50.1 µM
TK-10 [20]
  growth at 5000 µM: 40%
HOP-92
  growth at 500 µM: 29%
A498
  growth at 50 µM: 95%
